In PubChem BioAssay (NCI):
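Cultured in 96-well plates, cells were exposed to test compound for 48 hours across five concentrations. At the TGI there is no net growth.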

Assays:
Test in all cases: DTP human tumour cell line panel, 48 h
786-0 renal = test system: 786-0 renal
A498 renal = test system: A498 renal
A549 NSCLC = test system: A549 NSCLC
ACHN renal = test system: ACHN renal
BT-549 breast = test system: BT-549 breast
CAKI-1 renal = test system: CAKI-1 renal
COLO 205 colon = test system: COLO 205 colon
DU-145 prostate = test system: DU-145 prostate
EKVX NSCLC = test system: EKVX NSCLC
HCC-2998 colon = test system: HCC-2998 colon
HCT-116 colon = test system: HCT-116 colon
HCT-15 colon = test system: HCT-15 colon
HOP-62 NSCLC = test system: HOP-62 NSCLC
HOP-92 NSCLC = test system: HOP-92 NSCLC
HS 578T breast = test system: HS 578T breast
HT29 colon = test system: HT29 colon
IGROV1 ovarian = test system: IGROV1 ovarian
K-562 leukemia = test system: K-562 leukemia
KM12 colon = test system: KM12 colon
M14 melanoma = test system: M14 melanoma
MCF7 breast = test system: MCF7 breast
MDA-MB-231 breast = test system: MDA-MB-231 breast
MDA-MB-435 = test system: MDA-MB-435
MDA-N = test system: MDA-N
MOLT-4 leukemia = test system: MOLT-4 leukemia
NCI-H226 lung = test system: NCI-H226 lung
NCI-H23 lung = test system: NCI-H23 lung
NCI-H460 lung = test system: NCI-H460 lung
NCI-H522 lung = test system: NCI-H522 lung
OVCAR-3 ovarian = test system: OVCAR-3 ovarian
OVCAR-4 ovarian = test system: OVCAR-4 ovarian
OVCAR-5 ovarian = test system: OVCAR-5 ovarian
OVCAR-8 ovarian = test system: OVCAR-8 ovarian
PC-3 prostate = test system: PC-3 prostate
RXF 393 renal = test system: RXF 393 renal
SF-268 CNS = test system: SF-268 CNS
SF-295 CNS = test system: SF-295 CNS
SF-539 CNS = test system: SF-539 CNS
SK-MEL-2 melanoma = test system: SK-MEL-2 melanoma
SK-MEL-28 melanoma = test system: SK-MEL-28 melanoma
SK-MEL-5 melanoma = test system: SK-MEL-5 melanoma
SK-OV-3 ovarian = test system: SK-OV-3 ovarian
SN12C renal = test system: SN12C renal
SNB-19 CNS = test system: SNB-19 CNS
SW-620 colon = test system: SW-620 colon
T-47D breast = test system: T-47D breast
TK-10 renal = test system: TK-10 renal
U251 CNS = test system: U251 CNS
UACC-257 melanoma = test system: UACC-257 melanoma
UACC-62 melanoma = test system: UACC-62 melanoma
UO-31 renal = test system: UO-31 renal
CCRF-CEM leukemia = test system: CCRF-CEM leukemia
LOX IMVI melanoma = test system: LOX IMVI melanoma
MALME-3M melanoma = test system: MALME-3M melanoma
NCI/ADR-RES ovarian = test system: NCI/ADR-RES ovarian
RPMI-8226 leukemia = test system: RPMI-8226 leukemia
SNB-75 CNS = test system: SNB-75 CNS
SR leukemia = test system: SR leukemia

Measured: TGI

C=CCOC(=O)CC[N+]1=CCC(c2ccccc2)(c2ccccc2)O1
not listed: CCRF-CEM leukemia | LOX IMVI melanoma | MALME-3M melanoma | NCI/ADR-RES ovarian | RPMI-8226 leukemia | SNB-75 CNS | SR leukemia
> 100 µM: all other assays above

Cc1cc2[nH]c3[nH]c(=O)[nH]c(=O)c3c2cc1C
not listed: K-562 leukemia | MOLT-4 leukemia | NCI-H460 lung | OVCAR-3 ovarian | OVCAR-4 ovarian | PC-3 prostate | SK-MEL-28 melanoma | U251 CNS
> 100 µM: all other assays above
